Patent US8962263B2, “Methods and compositions for detecting the activation state of multiple proteins in single cells” (The Board of Trustees of the Leland Stanford Junior …, priority 2001, dated 2015)

Key:
PDK-1 = PDK-1 immunoprecipitation kinase assay from ICAM-2 cells; assay type: biochemical; conditions: compounds 10 μM, 1 hr
Excerpt: A) ICAM-2, interacts with α-actinin and ezrin. ICAM-2, ICAM2-ΔC or control cells were immunoprecipiated for ICAM-2, and immunoblotted for either a-actinin or ezrin. Control lysates were not subjected to immunoprecipitation and reflect positive controls for detected interacting protein. […] ICAM-2, and control cells were serum starved (48, hrs), treated with LY294002, (10, μM, 24, hrs), or cultured in growth media, and prepared for intracellular detection of phosphatidyinositol 3,4,5, triphosphate detection by flow cytometry. […] Phosphotransfer of ATP to peptide substrate was detected by scintillation counting and presented as counts per minute CPM. […]
PDK-1 activity was determined by a PDK-1 immunoprecipiation kinase assay kit (Upstate Biotecnology, Lake Placid, N.Y.) as recommended by manufacturer. In brief, PDK-1 was immunoprecipitated from 1×10^6 treated cells, incubated with inactivated SGK enzyme, and detection of (γ-^32P) ATP incorporation to a SGK peptide substrate was measured by scintillation counting. PI3K activity was detected by developed PI3K FACS based assay (see below). AKT activity was detected by immunoprecipitation of AKT1 from cells and used in a kinase assay with GSK3 fusion protein (CST). […] Kinase reaction was terminated with SDS sample buffer boiled for 5 min, and phosphorylation state of GS3K was detected by immunoblotting and visualized using ECL detection (Amersham). […]

ezrin = test: phosphotyrosine-protein based elisa for ezrin tyrosine phosphorylation upon ICAM-2 ligation; assay type: cell-based, human; conditions: Jurkat cells
Method: A) Expression levels of ICAM-2, vary across cell lines of different origins. Quantitative flow cytometry analysis was performed to assess the number of ICAM-2 surface molecules across transformed and untransformed fibroblasts, lymphocytes of T-cell and different B-cell differentiation states and myeloid lineages (see Material and Methods for elaboration). The number of surface molecules/cell is expressed as the mean (bar)+/−SD of triplicate experiments. B) Crosslinking of endogenous ICAM-2, induces ezrin tyrosine phosphorylation and enhanced ICAM-2, interaction. Jurkat cells were crosslinked for ICAM-2 using monoclonal antibody for the indicated times and subjected to immunoprecipitation/immunoblotting as indicated. C) Inhibition of ezrin phosphotyrosine by chemical inhibitors of src and Rho-dependent kinases. D) Ezrin phosphorylation and enhanced interaction with the p85, subunit of PI3K as a function of ICAM-2. Determined as described above. E) PDK-1, activity as a function of ICAM-2, ligation, as described above). F) PI3K and AKT localize to the membrane as a function of ICAM-2, ligation. Membrane/cytosolic fractionation was performed on ICAM-2, ligated Jurkat cells as a function of time and subjected to immunoblotting for PI3K and AKT.
In order to identify upstream kineses capable of tyrosine phosphorylating ezrin as a function of ICAM-2 ligation, we developed a phosphotyrosine-protein based elisa to screen for the inhibition of ezrin tyrosine phosphorylation in vivo by various known inhibitors of protein kineses (Perez and Nolan, manuscript in preparation). […] Given the design of the screen to detect tyrosine residue phosphorylation, we speculate that activation of Rho-dependent processes may be a prerequisite for ezrin to be tyrosine phosphorylated by src (elaborated below).

Jurkat T cells = test: anti-Fas induced apoptosis in ICAM-2 crosslinked Jurkat cells, annexin-V binding assay; assay type: cell-based, human; conditions: inhibitor 10 μM 1 hour, anti-Fas 50 ng/ml 8 hours
Method: A) ICAM-2, crosslinking induced AKT activity in Jurkat T cells and subsequent phosphorylation of GSK3, FKHR, and AFX as a function of time. Serum starved Jurkat T cells were incubated with either isotype control or anti-human ICAM-2, (10, μg/ml) for the indicated times. AKT kinase activity was determined as described. Immunoblot analysis verified AKT dual phosphorylation, FKHR and GSK3 phosphorylation, and BAD phosphorylation as a function of ICAM-2, crosslinking. B) ICAM-2 crosslinking induces AKT activity in BaF3, pre-B cells. […] ICAM-2, was crosslinked on 106, Jurkat T cells using an ICAM-2, mAb (10, μg/ml) 30, minutes prior to treatment with staurosporine (+) or DMSO vehicle (−). Apoptosis was determined by flow cytometry using annexin-V binding assay. […] Cells were assessed for apoptosis by annexin-V binding assay. […]
Apoptosis was determined either by counting pyknotic nuclei, annexin-V binding by flow cytometry, or TUNEL BrdU staining by flow cytometry as indicated. Apoptosis was induced either by staurosporine (1 μm), treatment with anti-mouse Fas (5 μq/ml Santa Cruz Biotechnology (SCB), anti-human Fas ([…]) as indicated in appropriate experiment, IL-3 withdrawal-(24 hrs) or as indicated. For pyknolic nuclei count, NIH3T3 cells were grown on glass coverslips and assayed for apoptosis. Suspension cells were analyzed by nuclear staining with 25 μM acridine orange/25 μm ethidium bromide or 5 μg/ml Hoechst 33342 (Molecular Probes, Eugene, Oreg.). Apoptosis was identified by the presence of characteristic pyknotic nuclei as described (Jacobson and Raff, 1995). At least 5 individual fields were photographed and counted using a Zeiss axioscope fluorescence microscope. […] The cells were trypsinized and viable cells counted following trypan blue staining. Untreated cells were counted at the time of treatment. % survival represents (number of viable cells post-treatment)/(number of viable cells pretreatment). […] Flow cytometry analysis was performed on a BD FACSCalibur machine with CELLQuest and analyzed using FlowJo software (Tree Star).

CD19+ human B cells = conditions: 10 μM, 30 minutes
Method: Apoptosis was measured by annexin-V binding detected by flow cytometry, and gated for CD19+, cells. […] Apoptosis was measured by annexin-V binding assay.
Antibody cross-linking experiments were performed using mAbs to anti-ICAM-1, anti-ICAM-2, anti-ICAM-3, anti-CD43, or anti-CD44 that recognizes the N-terminal region (extracellular domain) at 10 μg/ml. Spin dialysis (Biorad) was used for buffer exchange of azide containing antibodies (0.01%) to phosphate buffered saline buffer pH 7.4. Anti-mouse IgG (Sigma) was used as a control antibody in cross-linking experiments. 1×10^6 Jurkat, 1×10^6 BaF3, or 1×10^7 PBMC cells were serum starved for 4 hours respectively (except PBMC). Cells were incubated with either mAb (10 μg/ml) or mouse IgG (10 μg/ml) at 37° C. for the indicated time. Time points began post serum starvation to attenuate most of the signaling pathways or as indicated. […] Cells extracts were taken and subjected to either immunoprecipitation or immunoblotting were appropriate. Primary cells were subjected to apoptotic treatment followed by preparation for flow cytometry. GTPγS was made cell permeant by pre-incubating compound with Fugene (Roche Biochemicals) in a 1:4 molar ratio for 30 minutes at 25° C. prior to being applied to cells.

## C[C@@H](N)[C@H]1CC[C@H](C(=O)Nc2ccncc2)CC1 [Y-27632]
PDK-1
  PDK-1 activity in ICAM-2 cells: partially inhibited
ezrin
  tyrosine phosphorylation of ezrin: inhibit the tyrosine phosphorylation of ezrin
ezrin; listed as Y-27362
  tyrosine phosphorylation of ezrin: abolished tyrosine phosphorylation of ezrin
Jurkat T cells
  ICAM-2 crosslinking protection against Fas induced apoptosis: abrogated
CD19+ human B cells
  ICAM-2 anti-apoptotic effect in CD19+ human B cells: abrogated
